Entries after “also recorded” stand apart in the source; their conditions may differ. No end group written: not given here.
Legend:
mice [1] = experiment: Learned Helplessness (LH) test; format: in vivo, mouse; conditions: acute i.v., 10^-6 M, shocked mice
Method: LH training was carried out in 2-way shuttle plexiglas boxes (Imetronic). Each box was divided in 2 equal compartments (19.5×10×13 cm) separated by a wall equipped with, a gate (4.7×4.7 cm) that was closed during LH training but opened automatically during shuttle escape testing. LH was induced in shocked group by administering 360 inescapable, 2-s duration footshocks (0.3 mA intensity), administered once every 10 s over a 1-hour session. Scrambled shocks were delivered by a source shock to a grid floor, which was made of stainless steel bars 2 mm in diameter, spaced 4 mm apart. […] 24 hours later, escape testing was performed in the same box, but the animals had the possibility to avoid shocks by moving through the gate to the other side of the box. During testing sessions, all mice were given 30 shuttle escape trials with 30 s intervals between the start of each trial. While on the first five trials, the gate opened at the same time as the shock (0.3 mA), for the 25 remaining trials, the gate opened 2 s after shock onset. Each trial (with a maximal 24 s) duration was terminated when the mouse went into the adjacent compartment. Escape latencies were averaged over 5 trials. Overall escape latencies were computed by averaging escape latencies over 30 trials.

mice [2] = experiment: Porsolt Forced Swim Test (FST) in mice; format: in vivo, mouse; conditions: for reduced immobility time: acute, 30 min before test
Method: Mice (Janvier, France) were placed individually in cylinders (height: 30 cm, diameter: 15 cm) filled with 12 cm deep water (temperature: 22±1° C.) for 6 min. The total period of immobility was recorded during the last 4 min.

TREK-1 = target: T1, TREK-1 (Mus musculus, UniProt P97438); experiment: Whole-cell patch-clamp on CA3 pyramidal neurons in hippocampus brain slices; format: cell-based; set-up: a cellular network that endogenously expresses both TREK-1 and NTSR3/Sortilin; from tissue; host or cells: mouse hippocampal brain slices, CA3 pyramidal neurons; conditions: CA3 neurons of kcnk2-/- mice
T1 sequence (P97438 1-426): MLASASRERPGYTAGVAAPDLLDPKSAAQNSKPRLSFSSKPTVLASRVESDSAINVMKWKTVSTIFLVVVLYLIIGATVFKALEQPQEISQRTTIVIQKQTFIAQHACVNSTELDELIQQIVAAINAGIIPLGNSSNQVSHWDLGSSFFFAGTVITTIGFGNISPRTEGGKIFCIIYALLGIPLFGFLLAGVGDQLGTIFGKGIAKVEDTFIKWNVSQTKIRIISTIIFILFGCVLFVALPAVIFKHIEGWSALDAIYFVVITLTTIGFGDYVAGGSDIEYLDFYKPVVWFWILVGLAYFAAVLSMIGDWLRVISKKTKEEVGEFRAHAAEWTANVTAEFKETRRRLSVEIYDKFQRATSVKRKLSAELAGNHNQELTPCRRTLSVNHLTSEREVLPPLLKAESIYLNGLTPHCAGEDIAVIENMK

[3] = system: C13NJ microglial cell line; experiment: C13NJ wound-healing assay (NT-induced cell migration); format: cell-based; conditions: 10 nM NT in the presence of 1 μM spadin
Method: A cell-free zone was created within a semi-confluent monolayer with a pipette tip. We analyzed by time-lapse microscopy how cells repopulated the cell-free zone. The 100% of migrating cells was calculated by stimulation of cell migration with 10% of Fetal Calf Serum (FCS).
A cell-free zone was created within a semi-confluent monolayer of microglial culture by scratching cells off with a pipette tip.

mice [4] = experiment: Novelty-Suppressed Feeding test (NSF); format: in vivo, mouse; conditions: 4 days; spadin i.v. 10^-6 M, fluoxetine i.p. 3 mg/kg; 3 mg/kg
Method: NSF paradigm is a conflict test that elicits competing motivations: the drive to eat and the fear of venturing into the center of a bright arena. Latency to begin eating is used as an index of anxiety- and depression-like behavior. After 4 day treatment (saline or spadin, i.v.) and 24 hours food-deprivation, mice were presented with a food pellet placed in the center of a brightly plastic box (50×50×20 cm). Latency to begin eating was measured as previously described.

CREB = experiment: pCREB immunostaining in hippocampal sections; format: in vivo, mouse; conditions: 4 days, i.p. 10^-5 M, hippocampal SGZ
Method: Free floating sections were permeabilized in 0.1% Triton/PBS for 10 min and blocked with 3% goat serum/PBS for 2 hours at room temperature followed by a single wash in PBS. Sections were then incubated with the monoclonal anti-pCREB antibody (1:300, Cell Signaling Technology) overnight at 4° C. After three washes in PBS, sections were then incubated in biotinylated horse anti-rabbit IgG (Jackson ImmunoResearch, diluted 1:15000) for 2 hours at room temperature. pCREB expression was visualized by 3.3′-diaminobenzidine (DAB) staining using the VectaStain ABC kit (Biovalley). All sections were washed and mounted with Entellan. For BrdU/pCREB immunofluorescence staining, free floating sections of mice injected with BrdU were incubated with the primary antibodies, anti-rabbit pCREB (1:500, Cell Signaling Technology) and anti-mouse BrdU (1:40, Becton-Dickinson). After three washesin PBS, sections were then incubated in anti-IgGAlexa 488- or 594-coupled antibodies (Molecular Probes) for 1 h at room temperature. After drying sections in the dark boxes for 2 hours, they were mounted with Vectashield (Vector laboratories). Confocal microscopy observations were performed with the Laser Scanning Confocal Microscope (TCS SP, Leica) equipped with a DMIRBE inverted microscope, using a Plan Apo 63x/1,4 NA oil immersion objective.

mice [5] = experiment: Conditioned Suppression of Motility test (CMST); format: in vivo, mouse
Method: Mice were placed in a rectangular cage (20×20×27 cm) with a metallic grid floor, located in a sound-proof room illuminated by a 75 W bulb. There were 12 squares drawn on the floor for counting animal displacements. On the first day, the mouse was left in the test cage for 6 min and received 30 electric footshocks of 1.8 mA during 200 ms (one shock every 12 s.). On the second day, the mouse was again placed in the same cage without receiving electric footshocks (conditioned suppression group). Motility changes were observed by counting the number of squares crossed plus the number of climbing in 6 min. Each control group was treated exactly by the same way, except for the absence of the electric foot-shock. In this test, the mice learned to associate a conditioned stimulus (CS: test chamber) with an unconditioned stimulus (US: footshocks). After the pairing of CS and US, a robust associative memory of the CS-US was formed such that the CS alone could elicit a fear response (behavioral immobility or freezing).

**Q.** With APLPRWSGPIGVSWGLR [spadin] as the sequence, how does the “reduced escape latencies after training versus saline” value (mice [1]) read?
**A.** Its value is 25.4%.

**Q.** And the reduced immobility time (mice [2]; i.c.v., 10^-7 M)?
**A.** The reduced immobility time was 66.8%.

**Q.** And the reduced immobility time (mice [2]; i.p., 10^-8 M)?
**A.** Its reduced immobility time is 55.30%.

**Q.** And the reduced immobility time (mice [2]; i.v., 10^-6 M)?
**A.** Its reduced immobility time is 62.9%.

**Q.** And the “reduction of time of immobility” value (mice [2]; chronic, 15 days, spadin 10^-6 M, fluoxetine 1 mg/kg)?
**A.** Its value is “around 30%”.

**Q.** And the “effect in FST” value (mice [2]; injection in kcnk2-/- mice)?
**A.** Its value is “did not induce any change”.

**Q.** And the “reduction of time spent immobile” value (mice [2]; subchronic, 4 days, spadin i.v. 10^-6 M, fluoxetine 3 mg/kg)?
**A.** Its value is 43.2%.

**Q.** And the “inhibitory effect on arachidonic acid-induced current” value (TREK-1)?
**A.** The value was “totally absent”.

**Q.** What about the “migrating cells, % of number migrating with 10% FCS” value [3] of the same sequence?
**A.** The value was 6.2±1.3%.

**Q.** What about the “latency to feed versus saline” value (mice [4]) of the same sequence?
**A.** Its value is “significant decrease in latency to feed; also recorded: significantly reduced the latency to feed”.

**Q.** What about the “number of pCREB-labelled neurons versus saline” value (CREB) of the same sequence?
**A.** The value was “two-fold increase”.

**Q.** And the “reduction of conditioned suppression of motility” value (mice [5]; i.v., 10^-6 M)?
**A.** Its value is 84.4%.

**Q.** What about the “effect in CMST” value (mice [5]; injection in kcnk2-/- mice) of the same sequence?
**A.** The value was “did not induce any change”.

**Q.** What about the “motility (squares crossed plus climbings)” value (mice [5]; shocked group, acute spadin) of the same sequence?
**A.** Its value is 78±7 counts.
